Experimental findings from patent US9677140B2, “Molecular diagnostic test for cancer” (Almac Diagnostics Limited, priority 2010, dated 2017) are described below.

The subject of experiment [1] is HCC1937 BRCA1 mutant and HCC1937-BR (BRCA1 corrected) breast cancer cell-lines. The note with it: HCC1937 BRCA1 mutant cell-line relative to the BRCA1 corrected cell-line (HCC1937-BR); constant exposure, 12-14 days.
Experiment [2] has the same test system. As to the kind of experiment: Cell viability assay (CellTitre-Glo), determination of cisplatin sensitivity. As to conditions: HCC1937 BRCA1 mutant cell-line relative to the BRCA1 corrected cell-line (HCC1937-BR); 96 hours exposure. The class given is cell-based. Here is the method:
For measurement of sensitivity to cisplatin, exponentially growing cells were seeded into 96-well plates. […] Cells were incubated in the presence of drug for 96 hours following which time the viability of the cells was assessed using the Promega CellTitre-Glo luminescent cell viability assay. The sensitivity of the cells was calculated as the percentage of vehicle (DMSO) control.

Structures are written as SMILES.

In the case of `O=C(c1cc(Cc2n[nH]c(=O)c3ccccc23)ccc1F)N1CCCNCC1` [KU0058948], the “sensitivity to PARP-1 inhibitor (clonogenic survival)” value in experiment [1] is “more sensitive”.

In the case of `N.N.[Cl][Pt][Cl]` [cisplatin], the “sensitivity to cisplatin (cell viability)” value in experiment [2] is listed as “more sensitive”.
